Laboratory results: patent publication US10300029B2, “Organ protection solutions and method of use” (VIRGINIA COMMONWEALTH UNIVERSITY, priority 2011, dated 2019)

Columns and labels:
rodent capillaries = test system: rodent capillaries; design: species or system rats; conditions: rat, in vivo
Protocol: FIG. 10A-D. A) Diagram showing the shock, resuscitation, and recovery protocol used for these studies. The low volume resuscitation (LVR) time is the time from the start of the low volume resuscitation (after the lactate during hemorrhagic shock reaches 9-10 mM) until the time after the LVR infusion when the lactate rises back up to 9-10 mM again. This immediately precedes full resuscitation. The LVR time is a measure of the tolerance to the low volume state and is a function of the microcirculatory effectiveness since it is dependent on the rate of change of the plasma lactate. […] The numbers on the x-axis are the corresponding lactate concentrations in the plasma at the end of the LVR period. Most are close to 10 mM because that was the definition of the end of the LVR period. […] D) The oncotic reflection coefficient (σd) for PEG-20k was measured in six rats to determine the impermeant and the oncotic effects of this molecule in both the mesenteric vascular bed and the thoracic bed. FITC-labeled PEG-20k was used as a tracer molecule and the reflection coefficient was determined by measuring the lymph (L) to plasma (P) concentrations of FITC-PEG after an IV injection of the tracer under conditions of high lymph flow induced by volume loading with I.V. saline infusions (0.25 ml/min). […] FITC-labelled PEG-20k was measured by excitation-emission spectrofluorometry. […]

[1] = test system: juvenile swine in hemorrhagic shock
Excerpt: Saline control • b. […] Results

shocked rodents = assay: Hemorrhagic shock model, low volume resuscitation with gluconate (Example 4); type: in vivo
Protocol: Gluconate was administered in the organ protectant solution (e.g., a low volume resuscitation (LVR) solution with cell impermeants according to the present invention) in order to achieve a theoretical gluconate concentration of about 60 mM in the extracellular fluid compartment (subsequent experiments have shown that about 100 mM is probably optimal). The idea of low volume resuscitation is to give the shocked patient small volumes of intravenous fluids to prolong the time on the field to allow for rescue and transport to a forward hospital where more definitive resuscitation can occur (due to fewer resource limitations). The purpose of the addition of the cell impermeants to the LVR solution (usually saline) was to increase this “down time” further, effectively increasing the tolerance to the low flow state and making it more likely that the patient can survive the wait to the hospital. Essentially, the objective is to increase the “Golden Hour”.
In shock experiments, the time that the control animals could remain in the low volume state (after LVR administration) was 64 minutes. […] This means that these subjects were able to stay safely in the low volume state for much longer periods. In practical terms, they can wait longer for transport and full resuscitation, yet presumably have a higher chance of survival.

[2] = 24 hours after shock and resuscitation, vs controls

Protocol for normal pig blood: The (A) PT-INR and (B) aPTT effects were determined in both normal pig blood after ex-vivo mixing with PEG-20k LVR solutions (10% dilution) or with a saline control, also at a 10% solution, and after the end of the LVR period in pigs given PEG-20k based LVR solutions.
Juvenile swine (35-40 kn) were anesthetized with Ketamine/Xylazine, and propofol induction followed by isofluorane inhalation anesthesia maintenance (1-2%). A swan-Ganz catheter was introduced into the pulmonary artery via a cut down of the right jugular vein for the continuous measurement of cardiac output, pulmonary artery pressures, and sVO2 (mixed venous O2 saturation) by an optical sensor on the PA catheter. Blood pressure and arterial blood gases were measured by a line in the femoral artery. A line in the carotid artery and contralateral jugular vein was used for bleeding and resuscitation, respectively. […]
Finally, coagulation was determined in both normal pig blood after ex-vivo mixing with PEG-20k LVR solutions (10% dilution) or with a saline control, also at a 10% solution, and after the end of the LVR period in pigs given PEG-20k based LVR solutions.

polyethylene glycol 20,000 [PEG-20k]
coagulation (PT-INR, aPTT), ex-vivo mixing test (normal pig blood): not altered
capillary oncotic reflection coefficient (rodent capillaries): about 0.65
coagulation (PT-INR, aPTT), in-vivo [1]: not altered

O=C(O)[C@H](O)[C@@H](O)[C@H](O)[C@H](O)CO [gluconate]
albumin (shocked rodents; [2]): higher
liver enzymes (shocked rodents; [2]): lower
metabolic acidosis (shocked rodents; [2]): less
LVR time (shocked rodents; gluconate added to LVR solution, theoretical about 60 mM in extracellular fluid): over 106 minutes
